Test results as given in patent publication US20060229335A1, “Diarylamine and arylheteroarylamine pyrazole derivatives as modulators of 5ht2a” (priority 2002, published 2006).

Molecular target: non-endogenous, constitutively activated version of the human 5-HT2A receptor (human CART 5-HT2A) (Homo sapiens, UniProt P28223)
Test: Intracellular IP3 (inositol phosphate) accumulation assay, inverse agonist potency
Assay type: cell-based
Conditions: HEK293 cells transfected with mutated constitutively active 5-HT2A, averages of at least two trials, read-out: 5-HT2A (IC50) IP Accumulation Assay
Excerpt: It is well established that human 5-HT2A receptors coupled to the guanine nucleotide binding protein Gq. 5-HT2A-mediated activation of Gq results in activation of membrane associated phospholipase C which in turn catalyzes the hydrolysis of phosphatidylinositol species (PI, PIP, and PIP2) to form inositol phosphate species (IP, IP2, and IP3). The accumulation of inositol phosphate species can be measured and is often used to determine the functional potency of 5-HT2A agonists or antagonists. However, to evaluate compounds for potential inverse agonist activity, the 5-HT2A receptor must display constitutive activity. We have mutated the human 5-HT2A receptor so as to generate a non-endogenous, constitutively activated version of the 5-HT2A receptor, as disclosed in SEQ ID NO:30 (polynucleotide) and SEQ ID NO:31 (polypeptide) in U.S. Pat. No. 6,541,209 (the disclosure of which is hereby incorporated by reference in its entirety). Upon transfection of this mutated 5-HT2A into HEK293 cells, it was observed that there was a ligand-independent increase in basal inositol phosphate accumulation compared to untransfected cells. This ligand-independent insoitol phosphate accumulation is a trademark of constitutive activity. The following protocol was used to assess inverse agonist potency of compounds.
On day one, 13×10^6 HEK293 cells per 150 mm plate were plated out. On day two, 2 ml of serum OptimemI is added per plate followed by addition of 60 ul of lipofectamine and 16ug of cDNA. Note that lipofectamine must be added to the OptimemI and mixed well before addition of cDNA. While complexes between lipofectamine and the cDNA are forming, media is carefully aspirated and cells are gently rinsed with 5 ml of OptimemI media followed by careful aspiration. Then 12 ml of OptimemI is added to each plate and 2 ml of transfection solution is added followed by a 5 hour incubation at 37° C. in a 5% CO2 incubator. Plates are then carefully aspirated and 25 ml of Complete Media are added to each plate and cells are then incubated until used. On day 3, cells are trypsinized with 5 ml of 0.05% trypsin for 20-30 seconds followed by addition of 10 ml of warmed media, gently titurated to dissociate cells, and then 13 additional ml of warmed media is gently added. Cells are then counted and then 55,000 cells are added to 96-well sterile poly-D-lysine coated plates. Cells are allowed to attach over a six hour incubation at 37° C. in a 5% CO2 incubator. Media is then carefuilly aspirated and 100 ul of warm inositol-free media plus 0.5 μCi ^3H-inositol is added to each well and the plates are incubated for 18-20 hours at 37° C. in a 5% CO2 incubator.
On day 4, media is carefully aspirated and then 0.1 ml of assay medium is added containing inositol-free/serum free media, 10 μM pargyline, 10 mM lithium chloride, and test compound at indicated concentrations. The plates were then incubated for three hours at 37° C. and then wells are carefully aspirated. Then 200 ul of ice-cold 0.1M formic acid is added to each well. Plates can then be frozen at this point at −80° C. until further processed. Frozen plates are then thawed over the course of one hour, and the contents of the wells (approximately 220 ul) are placed over 400 ul of washed ion-exchange resin (AG 1-X8) contained in a Multi Screen Filtration plate and incubated for 10 minutes followed by filtration under vacuum pressure. Resin is then washed nine times with 200 ul of water and then [^3H]inositol phosphates are eluted into a collecting plate by the addition of 200 ul of 1M ammonium formate and an additional 5 minute incubation. The elutant is then transferred to 20 ml scintillation vials, 8 ml of SuperMix or Hi-Safe scintillation cocktails is added, and vials are counted for 0.5-1 minutes in a Wallac 1414 scintilation counter.
At each concentration, triplicate determinations were made. […]

Structure (SMILES)	IC50
Cn1ncc(Cl)c1-c1cccc(Nc2ccc(OC(F)(F)F)cc2)c1 [Compound 8, [3-(4-Chloro-2-methyl-2H-pyrazol-3-yl)-phenyl]-(4-trifluoromethoxy-phenyl)-amine]	44.6 nM
Cn1ncc(Br)c1-c1cccc(Nc2ccc(Cl)cc2)c1 [Compound 36, [3-(4-Bromo-2-methyl-2H-pyrazo1-3-yl)-phenyl]-(4-chloro-phenyl)-amine]	7 nM
Cn1ncc(Br)c1-c1cccc(Nc2ccc(C(F)(F)F)cc2)c1 [Compound 44, [3-(4-Bromo-2-methyl-2H-pyrazol-3-yl)-phenyl]-(4-trifluoromethyl-phenyl)-amine]	2.99 nM

Next, values leading:

IC50	Structure (SMILES)
10.6 nM	Cn1ncc(Br)c1-c1cccc(Nc2nc3ccccc3o2)c1 [Compound 57, Benzoxazol-2-yl-[3-(4-bromo-2-methyl-2H-pyrazol-3-yl)-phenyl]-amine]
19 nM	Cc1cc(Nc2cccc(-c3c(Br)cnn3C)c2)ccc1Cl [Compound 49, [3-(4-Bromo-2-methyl-2H-pyrazol-3-yl)-phenyl]-(3-methyl-4-chloro-phenyl)-amine]
113 nM	Cn1ncc(Br)c1-c1cccc(Nc2ccc(S(C)(=O)=O)cc2)c1 [Compound 46, [3-(4-Bromo-2-methyl-2H-pyrazol-3-yl)-phenyl]-(4-methanesulfonyl-phenyl)-amine]
1.77 nM	COc1ccc(Nc2ccc(Cl)cc2)cc1-c1c(Br)cnn1C [Compound 70, [3-(4-Bromo-2-methyl-2H-pyrazol-3-yl)-4-methoxy-phenyl)-(4-chloro-phenyl)-amine]
